Data published in US6107316A, “Method for treating protozoal infections” (priority 1998, dated 2000).
In brackets after ≈: the same amount, converted by molar mass. Read-outs that look alike come from different tables or passages of the source.

Assays:
Tetrahymena pyriformis = assay: in vitro growth inhibitory activity against the ciliate Tetrahymena pyriformis; type: cell-based, Tetrahymena pyriformis (ATCC strain 30005); conditions: read-out: EC50 Tetrahymena pyriformis
Procedure: Compounds were evaluated for in vitro growth inhibitory activity against the ciliate Tetrahymena pyriformis, which was used as an indicator organism for the Apicomplexia since by several criteria the ciliates and Apicomplexa are closely related (Edlind T. D. et al., Mol. Phylogenet. Evol. vol. 5, pp. 359-367, 1996). T. pyriformis (ATCC strain 30005) was grown in 1 ml ATCC medium 357 at 25° C. in 4 ml polyallomer culture tubes without shaking. Compounds were dissolved in dimethylsufoxide (DMSO) and added to the cultures (containing 3,000 cells/ml) such that the final DMSO concentration was 0.1-0.3%. […] Parasitol. vol. 84, pp. 355-370, 1996) and Cryptosporidium parvum (Arrowood et al., FEMS Microbial. Lett., vol. 136, pp. 245-249, 1996) were tested for comparison.

Cryptosporidium parvum = conditions: Arrowood et al., 1996; cited from earlier work
Toxoplasma gondii = conditions: Stokkermans et al., 1996; cited from earlier work

Compound	EC50 (Tetrahymena pyriformis; 24 h) [µg/mL]	in vitro activity against Cryptosporidium parvum (Cryptosporidium parvum)	in vitro activity against Toxoplasma gondii (Toxoplasma gondii)	EC50 (Tetrahymena pyriformis; 24 hours, 25° C.) [µg/mL]
CCC(CC)Nc1c([N+](=O)[O-])cc(C)c(C)c1[N+](=O)[O-] [pendimethalin]	2 (≈ 7.11 µM)	have in vitro activity	have in vitro activity	
CCCN(CCC)c1c([N+](=O)[O-])cc(C(F)(F)F)cc1[N+](=O)[O-] [trifluralin]		have in vitro activity	have in vitro activity	> 6
